From publication PMC9415608, “Design, Synthesis and Biological Investigation of 2-Anilino Triazolopyrimidines as Tubulin Polymerization Inhibitors with Anticancer Activities” (Pharmaceuticals, 2022)
Read-outs that look alike come from different tables or passages of the source.

Experiments:
[1] = test system: Bovine brain tubulin; assay: Inhibition of tubulin polymerization (turbidimetric assembly assay); format: biochemical; conditions: tubulin at 10 μM, 20 min incubation; read-out: Tubulin Assembly IC50 ± SD
Procedure: (§1) Bovine brain tubulin was purified as described previously. To evaluate the effects of the compounds on tubulin assembly in vitro [80], varying concentrations were preincubated with 10 μM tubulin in 0.8 M monosodium glutamate (pH 6.6) at 30 °C and the reaction mixtures then cooled to 0 °C. After addition of GTP, the mixtures were transferred to 0 °C cuvettes in Beckman Coulter (Brea, CA, USA) DU-7400/DU-7500 recording spectrophotometers equipped with electronic temperature controllers and warmed to 30 °C, and the assembly of tubulin was observed turbidimetrically. […] Inhibition of colchicine binding to tubulin was measured as described before, except that the reaction mixtures contained 0.5 μM tubulin and 5 μM each of [^3H]colchicine and test compound. Only one DEAE-cellulose filter was used per sample, and filtration was by gravity.
(§2) Bovine brain tubulin (see ref. [79] for details of purification) was used to examine effects on tubulin polymerization and colchicine binding. Briefly, in the polymerization experiments, different compound concentrations were preincubated with 10 µM tubulin for 15 min at 30 °C and cooled on ice. After GTP was added to each reaction mixture, the samples were transferred to 0 °C cuvettes in recording spectrophotometers with electronic temperature controllers. The temperature was raised to 30 °C over about 30 s, and turbidity development was followed for 20 min at 350 nm. […] In the current studies, [^3H]colchicine (from American Radiolabeled Corp., St. Louis, MO) binding was measured after 10 min at 37 °C. Reaction mixtures contained 0.5 µM tubulin and 5.0 µM each of the [^3H]colchicine and the potential inhibitor, and a single DEAE-cellulose filter was used for each sample, with gravity filtration.

[2] = test system: Bovine brain tubulin; assay: Inhibition of [3H]colchicine binding to tubulin; conditions: tubulin 0.5 µM, [3H]colchicine 5 µM, tested compound 5 µM
Procedure: as §1, §2

[3] = test system: HT29; assay: In vitro cell growth inhibition, resazurin viability assay; format: cell-based, human; conditions: Homo sapiens, HT-29; 72 h, resazurin; mean ± SE
Procedure: (§3) All the cell lines used in this paper were of human origin and purchased from the American Type Culture Collection (ATCC, Manassas, VA, USA). Colon adenocarcinoma (HT-29), non-small cell lung carcinoma (A549), cervix carcinoma (HeLa) and breast adenocarcinoma (MDA-MB-231) cells were grown in RPMI (HT29) or DMEM (A549, HeLa, MDA-MB-231) medium (Gibco, Milano, Italy). Both media were supplemented with 115 units/mL of penicillin G (Gibco, Milano, Italy), 115 μg/mL of streptomycin (Invitrogen, Milano, Italy) and 10% fetal bovine serum (Invitrogen, Milano, Italy). All cell lines were grown at 37 °C in a humidified 5% CO2 atmosphere. The cells were grown in 2 mL of complete medium.
(§4) Stock solutions were prepared for each compound by dissolving in DMSO at the final concentration of 10 mM.
(§5) The cells were seeded in 96-well plates at the appropriate density for each cell line. The respective cell line densities used for the antiproliferative assay were HeLa and HT29 5000 cells/well, A549 4000 cells/well and MDA-MB-231 7000 cells/well. The total volume of medium was 100 µL. After 24 h, the cells were treated by performing serial 5-fold dilutions of the tested compounds starting from a concentration of 10 μM. All experimental conditions were tested in triplicate for statistical analysis. After 72 h of incubation, 10 μL of 100 μg/mL resazurin solution was added to each well and the plate was re-incubated for 3–4 h. The fluorescence of the wells in each plate was monitored using a Spark 10M spectrophotometer (Tecan Group Ltd., Mannedorf, Switzerland) with a 535 nm excitation wavelength and a 600 nm emission wavelength.

[4] = test system: MDA-MB-231; assay: as above; format: cell-based, human; conditions: Homo sapiens, MDA-MB-231; 72 h, resazurin; mean ± SE
Procedure: as §3, §4, §5

[5] = test system: HeLa; assay: as above; format: cell-based, human; conditions: Homo sapiens; 72 h, resazurin; mean ± SE
Procedure: as §3, §4, §5

[6] = test system: A549; assay: as above; format: cell-based, human; conditions: Homo sapiens, A549; 72 h, resazurin; mean ± SE
Procedure: as §3, §4, §5

[7] = test system: MDA-MB-231, HeLa, A549 and HT-29 cancer cell lines; assay: Antiproliferative activity stated across the panel of cancer cell lines; format: cell-based, human; conditions: for IC50: Homo sapiens; for fold reduction in antiproliferative activity relative to 3d: range over cell lines
Procedure: as §3, §4, §5

[8] = test system: cancer cell lines; conditions: antiproliferative agent; read-out: IC50, range; cited from earlier work
[9] = test system: tubulin; set-up: method as in PMID 35196595; conditions: read-out: IC50 tubulin polymerization inhibitor; cited from earlier work
[10] = test system: HCT-116 cancer cell line; set-up: method as in PMID 35196595; conditions: read-out: IC50 antiproliferative activity against HCT-116; cited from earlier work
[11] = test system: tubulin; conditions: cited from earlier work
[12] = test system: HeLa cells; conditions: read-out: IC50 antiproliferative activity against HeLa cells; cited from earlier work
[13] = test system: panel of four cancer cell lines; conditions: read-out: IC50 values, range; cited from earlier work
[14] = test system: tubulin; set-up: method as in PMID 25025853; conditions: read-out: IC50 inhibition of tubulin polymerization; cited from earlier work
[15] = on HeLa, A549 and HT-29 cancer cells, read-out: IC50 values, range

Structure (SMILES): COc1cc(-c2ccnc3nc(Nc4ccc(C)c(C)c4)nn23)cc(OC)c1OC [Compound 3f, N-(3,4-Dimethylphenyl)-7-(3,4,5-trimethoxyphenyl)-[1,2,4]triazolo[1,5-a]pyrimidin-2-amine]
- IC50 [1]: 800 ± 100 nM
- Colchicine Binding % Inhibition ± SD [2]: 18 ± 5%
- melting point: 189 to 190 °C
- IC50 [3]: 0.16 ± 0.041 µM
- IC50 [4]: > 10 µM
- IC50 [5]: 0.067 ± 0.0023 µM
- IC50 [6]: 0.16 ± 0.045 µM
- IC50 [7, 15]: 67 to 160 nM
- fold reduction in antiproliferative activity relative to 3d [7]: 2–5 fold

Structure (SMILES): COc1cc(Nc2cc(C)nc3nc(Nc4ccc(C)cc4)nn23)cc(OC)c1OC [5-methyl-2-(p-toluidino)-7-(3′,4′,5′-trimethoxyanilino)-[1,2,4]triazolo[1,5-a]pyrimidine]
- IC50 [8]: 520 to 1550 nM

Structure (SMILES): COc1cc(-c2cc(-c3ccc(Cl)cc3)nc3nc(N)nn23)cc(OC)c1OC [Compound 5]
- IC50 [9]: 3840 nM
- IC50 [10]: 530 nM

Structure (SMILES): COc1ccc(/C=C\c2cc(OC)c(OC)c(OC)c2)cc1O [CA-4, combretastatin A-4, reference compound]
- Colchicine Binding % Inhibition ± SD [2]: 98 ± 2%
- IC50 [4]: 0.005 ± 0.002 µM
- IC50 [5]: 0.004 ± 0.001 µM
- IC50 ([7]; against MDA-MB-231 and HeLa cancer cell lines, read-out: IC50, range): 4 to 5 nM

Structure (SMILES): COc1ccc(-c2nc3nccc(-c4cc(OC)c(OC)c(OC)c4)n3n2)cc1O [Compound 4]
- fold greater potency than CA-4, inhibition of tubulin assembly [11]: 3 fold
- IC50 [12]: 60 nM
- IC50 [13]: 3000 to 18000 nM

Structure (SMILES): COc1cc(C(=O)n2nc(Nc3ccc(C)cc3)nc2N)cc(OC)c1OC [Compound 2a]
- IC50 [14]: 750 nM

Structure (SMILES): CCc1ccc(Nc2nc3nccc(-c4cc(OC)c(OC)c(OC)c4)n3n2)cc1 [Compound 3h, N-(4-Ethylphenyl)-7-(3,4,5-trimethoxyphenyl)-[1,2,4]triazolo[1,5-a]pyrimidin-2-amine]
- IC50 [1]: 1900 ± 200 nM
- Colchicine Binding % Inhibition ± SD [2]: 21 ± 0.9%
- melting point: 199 to 200 °C
- IC50 [3]: 0.16 ± 0.033 µM
- IC50 [4]: > 10 µM
- IC50 [5]: 0.24 ± 0.074 µM
- IC50 [6]: 0.2 ± 0.044 µM
- IC50 [7, 15]: 160 to 240 nM
- fold reduction in antiproliferative activity relative to 3d [7]: 5–7 fold
